Values joined by “and” are separate entries in the source; they are usually repeats but may differ in a detail not shown here. Equal values may be shown once. Active and inactive are the calls of the source.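 The calls were made as follows: active = EC50 of 10 µM or lower; inactive = the rest.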
These compounds were tested on H9c2 cardiomyocytes, 2-deoxyglucose injury, ATP luminescence, 2 h (assay: protection of cardiomyocytes from 2-deoxyglucose injury, SAR follow-up, H9c2 cells, ATP luminescence, set 2 (AID 624454)).

| SMILES | EC50 (protection from 2-deoxyglucose ATP loss, increase) |
| --- | --- |
| COc1cccc(CNC(=O)c2cc(-c3cc(OC)c(OC)c(OC)c3)nc3ccccc23)c1 | 27.4 µM (inactive) |
| COc1ccc2c(c1OC)C(=O)N1c3ccccc3C(=O)N(c3cccc(Cl)c3)C21 (configuration not stated) | 45 µM (inactive) |
| COc1ccc2c(c1OC)C(=O)N1c3ccccc3C(=O)N(c3cccc(Br)c3)C21 (configuration not stated) | 28.4 µM (inactive) and > 79 µM (inactive) |
| COc1ccc2c(c1OC)C(=O)N1c3ccccc3C(=O)N(c3ccccc3)C21 (configuration not stated) | 31.9 µM (inactive) |
| COc1cc(-c2cc(C(=O)Nc3cccc(C(F)(F)F)c3)c3ccccc3n2)cc(OC)c1OC | > 79 µM (inactive) |
| CCN(CC(=O)Nc1ccc(OC)cc1)C(=O)c1cc(-c2cc(OC)c(OC)c(OC)c2)nc2ccccc12 | 29.8 µM (inactive) |
| COc1cccc(CNC(=O)c2cc(-c3ccc(OC)c(OC)c3)nc3ccccc23)c1 | 18.5 µM (inactive) |
| COc1cc(-c2cc(C(=O)Nc3cccc(Cl)c3)c3ccccc3n2)cc(OC)c1OC | > 79 µM (inactive) |
| CCOC(=O)c1cccc(NC(=O)c2cc(-c3cc(OC)c(OC)c(OC)c3)nc3ccccc23)c1 | > 79 µM (inactive) |
| CCN(CC(=O)Nc1ccc(OC)cc1)C(=O)c1cc(-c2cccs2)nn1-c1ccccc1 | 16.1 µM (inactive) and 20.5 µM (inactive) |
| COc1cccc(N2C(=O)c3ccccc3N3C(=O)c4c(ccc(OC)c4OC)C23)c1 (configuration not stated) | 78 µM (inactive) |
| COc1ccc2c(c1OC)C(=O)N1c3ccccc3C(=O)N(Cc3ccccc3Cl)C21 (configuration not stated) | 12.8 µM (inactive) |
| CCN(CC(=O)Nc1ccccc1)C(=O)c1cc(-c2cccs2)nn1-c1ccccc1 | > 79 µM (inactive) |
| COc1cc(-c2cc(C(=O)Nc3ccc(C(C)=O)cc3)c3ccccc3n2)cc(OC)c1OC | > 79 µM (inactive) |
| COc1ccc2c(c1OC)C(=O)N1c3ccccc3C(=O)N(c3ccc(C)cc3)C21 (configuration not stated) | 29.1 µM (inactive) |
| COc1ccc2c(c1OC)C(=O)N1c3ccccc3C(=O)N(c3cccc(F)c3)C21 (configuration not stated) | 41.1 µM (inactive) |
| COc1cc(-c2cc(C(=O)Nc3cccc(F)c3)c3ccccc3n2)cc(OC)c1OC | > 79 µM (inactive) |
| COc1ccc(-c2cc(C(=O)Nc3cccc(C(C)=O)c3)c3ccccc3n2)cc1 | > 79 µM (inactive) |
| COc1ccc2c(c1OC)C(=O)N1c3ccccc3C(=O)N(Cc3cccc(Cl)c3)C21 (configuration not stated) | 37.9 µM (inactive) |

| SMILES | EC50 (protection from 2-deoxyglucose ATP loss, increase) |
| --- | --- |
| COc1cc(-c2cc(C(=O)Nc3ccccc3)c3ccccc3n2)cc(OC)c1OC | > 79 µM (inactive) |
| COc1ccc(NC(=O)c2cc(-c3cc(OC)c(OC)c(OC)c3)nc3ccccc23)cc1 | > 79 µM (inactive) |
| COc1cc(-c2cc(C(=O)Nc3cccc(C)c3)c3ccccc3n2)cc(OC)c1OC | > 79 µM (inactive) |
| O=C1c2ccccc2N2C(=O)c3ccccc3C2N1c1ccccc1 (configuration not stated) | > 79 µM (inactive) |
| COc1ccc(N2C(=O)c3ccccc3N3C(=O)c4c(ccc(OC)c4OC)C23)cc1 (configuration not stated) | 58.4 µM (inactive) |
| O=C1c2ccccc2N2C(=O)c3ccccc3C2N1c1cccc(Br)c1 (configuration not stated) | > 79 µM (inactive) |
| COc1cccc(NC(=O)c2cc(-c3cc(OC)c(OC)c(OC)c3)nc3ccccc23)c1 | > 79 µM (inactive) |
| CC(=O)c1cccc(NC(=O)c2cc(-c3ccccc3)nc3ccccc23)c1 | 33.5 µM (inactive) |
| COc1ccc2c(c1OC)C(=O)N1c3ccccc3C(=O)N(c3cccc(C)c3)C21 (configuration not stated) | 53.3 µM (inactive) |
| COc1ccc2c(c1OC)C(=O)N1c3ccccc3C(=O)N(c3cccc(C(F)(F)F)c3)C21 (configuration not stated) | > 79 µM (inactive) |
| CCN(CC(=O)Nc1ccc(F)cc1)C(=O)c1cc(-c2cccs2)nn1-c1ccccc1 | 36.1 µM (inactive) |
| COc1cc(-c2cc(C(=O)Nc3cccc(C(C)=O)c3)c3cc(Cl)ccc3n2)cc(OC)c1OC | > 79 µM (inactive) |
| COc1ccc2c(c1OC)C(=O)N1c3ccccc3C(=O)N(c3ccc(Br)cc3)C21 (configuration not stated) | 11.3 µM (inactive) |
| COc1cc(-c2cc(C(=O)Nc3cccc(C(C)=O)c3)c3ccccc3n2)cc(OC)c1OC | 13.7 µM (inactive) and 14.8 µM (inactive) |
| COc1ccc(-c2cc(C(=O)Nc3cccc(C(C)=O)c3)c3ccccc3n2)cc1OC | 42.8 µM (inactive) |
| COc1cccc(N2C(=O)c3ccccc3N3C(=O)c4ccccc4C23)c1 (configuration not stated) | > 79 µM (inactive) |
| COc1ccc2c(c1OC)C(=O)N1c3ccccc3C(=O)N(c3ccc(C(C)(C)C)cc3)C21 (configuration not stated) | > 79 µM (inactive) |
| COc1cccc(-c2cc(C(=O)Nc3cccc(C(C)=O)c3)c3ccccc3n2)c1 | 37.3 µM (inactive) |

Reference: PubChem BioAssay AID624454 (Sanford-Burnham Center for Chemical Genomics, 2012)
